We go through 16 compounds from publication PMC7037052, “Predicting the Blood-Brain Barrier Permeability of New Drug-Like Compounds via HPLC with Various Stationary Phases” (Molecules, 2020).

SMILES strings stand for the structures.

Data set [1] concerns normal cells. Details: method as in doi:10.1016/j.arabjc.2016.12.024, PMID 24126095. Conditions: cited from earlier work.
Data set [2] concerns human cancer cells. Further details: method as in doi:10.1016/j.arabjc.2016.12.024, PMID 24126095. Conditions: cited from earlier work.
Data set [3] in a line: RP-HPLC retention on Purosphere RP-18e (ODS) column, buffer pH 7.4-acetonitrile. Conditions: for log kw, ODS: extrapolated to buffer pH 7.4 as mobile phase, 25 °C; for s ODS: slope of Soczewiński-Wachtmeister equation, acetonitrile φ 0.3–0.6. It counts as physicochemical. Here is the method: (§1) Retention parameters reported as the log k values were calculated by the expression:(1) logk=log(tR−t0)/t0 where tR and t0 are the retention times of the solute and a non-retained compound (citric acid), respectively. They were used to calculate the log kw values, i.e., logarithms of retention parameter in the buffer as the mobile phase. For this purpose the Soczewiński-Wachtmeister’s equation was used:log k = log kw − sφ(2) where φ is the volume fraction of organic modifier in the mobile phase; k and kw are retention parameters corresponding to mixed effluent and buffer as the mobile phase, respectively. The slope s is characteristic of a given solute and chromatographic system. Strong linear relationships between log k and φ values were found for all the compounds in the range of effluent composition examined (R^2 > 0.9). The log kw values determined for the ODS (log kw, ODS), IAM (log kw, IAM) and Cholester (log kw, Cholester) columns were intercorrelated and the following linear relationships with a very good statistical quality were obtained:log kw, ODS = 0.691(± 0.094) + 0.982(± 0.044) log kw, IAM(3) SD = 0.257; R^2 = 0.8880; N = 65 log kw, ODS = 0.911(± 0.062) + 0.765(± 0.025) log kw, Cholester(4) SD = 0.192; R^2 = 0.9371; N = 65 log kw, IAM = 0.356(± 0.073) + 0.721(± 0.029) log kw, Cholester(5) SD = 0.224; R^2 = 0.9068; N = 65
(§2) Shimadzu Vp (Shimadzu, Izabelin, Poland) liquid chromatographic system equipped with LC 10AT pump, SPD 10A UV-Vis detector, SCL 10A system controller, CTO-10 AS chromatographic oven and Rheodyne injector valve with a 20 µL loop was applied in HPLC measurements. Three stationary phases were employed: • Purosphere RP-18e (ODS), 125 × 4 mm i.d., 5 µm (Merck); • IAM.PC.DD2 100 × 4.6 mm i.d., 10 µm (Regis Chemicals Company, Morton Grove, IL, USA); • Cosmosil Cholester, 75 × 2 mm i.d., 2.5 µm (Genore, Warsaw, Poland).
(§3) As mobile phases buffer-acetonitrile mixtures were used. The buffer was prepared from 0.01 mol L^−1 solutions of Na2HPO4 and citric acid and the pH 7.4 value was fixed before mixing with organic modifier. With the ODS column acetonitrile concentration in the effluent, expressed as a volume fraction (φ, v/v), was changed in the range 0.3–0.6, with the constant step of 0.1. The flow rate was 1 mL min^−1. With the IAM column acetonitrile concentration was changed in the range 0.2–0.5, also with the constant step of 0.1 and the flow rate was 1.3 mL min^−1. With the Cosmosil Cholester column acetonitrile concentration was changed in the range 0.4–0.6, with the constant step of 0.05 and the flow rate was 0.4 mL min^−1. Samples of test compounds were dissolved in acetonitrile—c.a. 0.005 mg mL^−1. […] They were detected under UV light at 210 and 254 nm. All measurements were carried out at 25 °C. The dead time values were measured from non-retained compound (citric acid) peaks. All reported log kw values are the average of at least three independent measurements. The extrapolated retention coefficients (logs kw) achieved by HPLC on ODS, IAM and Cholester stationary phases were used for modelling the log BB permeation of 65 drug-like compounds employed as a whole test set (Table 1).

Data set [4] is described as follows: RP-HPLC retention on IAM.PC.DD2 (immobilized artificial membrane) column, buffer pH 7.4-acetonitrile. It counts as physicochemical. Conditions: for log kw, IAM: extrapolated to buffer pH 7.4 as mobile phase, 25 °C; for s IAM: slope of Soczewiński-Wachtmeister equation, acetonitrile φ 0.2–0.5. Here is the method: as §1, §2, §3
Data set [5] is described as follows: RP-HPLC retention on Cosmosil Cholester column, buffer pH 7.4-acetonitrile. It counts as physicochemical. Conditions: for log kw, Cholester: extrapolated to buffer pH 7.4 as mobile phase, 25 °C; for s Cholester: slope of Soczewiński-Wachtmeister equation, acetonitrile φ 0.4–0.6. Here is the method:
as §1, §2, §3

Consider `O=c1c(CCc2ccccc2)nnc2n1CCN2c1ccc(Cl)cc1` [Compound 64], for which the “toxic effects for normal cells” value in data set [1] is listed as “less toxic effects”. In data set [2], the “antiproliferative activities in human cancer cells” value (from here on “antiproliferative activities”) is reported as “significant antiproliferative activities”. In data set [3], the “log kw, ODS” value is 3.56 and the “s ODS” value was found to be 5.81. For the same compound, in data set [4], the “log kw, IAM” value is 2.68 and the “s IAM” value stood at 5.44. Further, in data set [5], the “log kw, Cholester” value is listed as 3.22 and the “s Cholester” value is 5.12.

For `O=c1c(-c2ccccc2)nnc2n1CCN2c1ccc(Cl)cc1` [Compound 39], the “toxic effects for normal cells” value in data set [1] is listed as “less toxic effects”. The “antiproliferative activities” value in data set [2] is recorded as “significant antiproliferative activities”. Moreover, in data set [3], the “log kw, ODS” value is given as 3.41 and the “s ODS” value was 5.20. In addition, in data set [4], the “log kw, IAM” value was 2.57 and the “s IAM” value is 5.32. In data set [5], the “log kw, Cholester” value is given as 3.19 and the “s Cholester” value turned out to be 5.30.

On to `CCc1nnc2n(c1=O)CCN2c1ccccc1` [Compound 1], for which the “toxic effects for normal cells” value in data set [1] is given as “less toxic effects”. Besides, the “antiproliferative activities” value in data set [2] was “significant antiproliferative activities”. In data set [3], the “log kw, ODS” value is listed as 0.97 and the “s ODS” value is listed as 2.70. In data set [4], the “log kw, IAM” value is 0.55 and the “s IAM” value came to 2.10. Further, in data set [5], the “log kw, Cholester” value is listed as 0.20 and the “s Cholester” value worked out at 1.25.

For `CCc1nnc2n(c1=O)CCN2c1ccc(Cl)cc1` [Compound 5], the “toxic effects for normal cells” value in data set [1] was “less toxic effects”. The “antiproliferative activities” value in data set [2] was “significant antiproliferative activities”. Further, in data set [3], the “log kw, ODS” value is on record as 1.78 and the “s ODS” value is 3.56. In addition, in data set [4], the “log kw, IAM” value is listed as 1.24 and the “s IAM” value is reported as 3.25. Further, in data set [5], the “log kw, Cholester” value was 1.18 and the “s Cholester” value worked out at 2.61.

Consider `O=c1c(-c2ccco2)nnc2n1CCN2c1c(Cl)cccc1Cl` [Compound 28], for which the “toxic effects for normal cells” value in data set [1] is given as “less toxic effects”. Besides, the “antiproliferative activities” value in data set [2] is on record as “significant antiproliferative activities”. Also, in data set [3], the “log kw, ODS” value is reported as 2.53 and the “s ODS” value was found to be 4.45. For the same compound, in data set [4], the “log kw, IAM” value was 1.70 and the “s IAM” value was 3.90. Besides, in data set [5], the “log kw, Cholester” value was 2.05 and the “s Cholester” value stood at 3.66.

For `Cc1ccccc1N1CCn2c1nnc(-c1ccco1)c2=O` [Compound 19], the “toxic effects for normal cells” value in data set [1] was “less toxic effects”. Also, the “antiproliferative activities” value in data set [2] is on record as “significant antiproliferative activities”. In data set [3], the “log kw, ODS” value is recorded as 1.74 and the “s ODS” value is reported as 3.48. Also, in data set [4], the “log kw, IAM” value is listed as 0.96 and the “s IAM” value is 2.72. In data set [5], the “log kw, Cholester” value was 1.20 and the “s Cholester” value is listed as 2.78.

`CCc1nnc2n(c1=O)CCN2c1cccc(Cl)c1` [Compound 4]: in data set [1], the “toxic effects for normal cells” value is recorded as “less toxic effects”. Besides, in data set [2], the “antiproliferative activities” value is “significant antiproliferative activities”. In data set [3], the “log kw, ODS” value is on record as 1.33 and the “s ODS” value worked out at 3.15. Besides, in data set [4], the “log kw, IAM” value is on record as 0.84 and the “s IAM” value is reported as 2.60. Moreover, in data set [5], the “log kw, Cholester” value is 0.62 and the “s Cholester” value turned out to be 1.82.

Regarding `O=c1c(CCc2ccccc2)nnc2n1CCN2c1ccccc1Cl` [Compound 63], in data set [1], the “toxic effects for normal cells” value is “less toxic effects”. The “antiproliferative activities” value in data set [2] is listed as “significant antiproliferative activities”. Besides, in data set [3], the “log kw, ODS” value was 2.46 and the “s ODS” value is recorded as 4.44. Further, in data set [4], the “log kw, IAM” value was 1.81 and the “s IAM” value turned out to be 4.08. In addition, in data set [5], the “log kw, Cholester” value is given as 1.94 and the “s Cholester” value is 3.66.

For the compound `CCOC(=O)Cc1nnc2n(c1=O)CCN2c1cccc(Cl)c1` [Compound 15], in data set [1], the “toxic effects for normal cells” value is reported as “less toxic effects”. Besides, the “antiproliferative activities” value in data set [2] is “significant antiproliferative activities”. In addition, in data set [3], the “log kw, ODS” value was 2.85 and the “s ODS” value came out at 4.90. In data set [4], the “log kw, IAM” value is listed as 2.05 and the “s IAM” value stood at 4.45. Moreover, in data set [5], the “log kw, Cholester” value was 2.41 and the “s Cholester” value was 4.15.

On to `O=c1c(-c2ccco2)nnc2n1CCN2c1ccccc1Cl` [Compound 24], for which, in data set [1], the “toxic effects for normal cells” value is reported as “less toxic effects”. Besides, the “antiproliferative activities” value in data set [2] is given as “significant antiproliferative activities”. In addition, in data set [3], the “log kw, ODS” value is on record as 2.25 and the “s ODS” value is reported as 4.22. Moreover, in data set [4], the “log kw, IAM” value is recorded as 1.27 and the “s IAM” value was found to be 3.25. Besides, in data set [5], the “log kw, Cholester” value is listed as 1.34 and the “s Cholester” value came to 2.95.

With `COc1ccccc1N1CCn2c1nnc(-c1ccco1)c2=O` [Compound 22], the “toxic effects for normal cells” value in data set [1] is reported as “less toxic effects”. Further, the “antiproliferative activities” value in data set [2] is reported as “significant antiproliferative activities”. In data set [3], the “log kw, ODS” value is on record as 1.67 and the “s ODS” value was 3.48. Besides, in data set [4], the “log kw, IAM” value is 1.11 and the “s IAM” value is reported as 3.02. For the same compound, in data set [5], the “log kw, Cholester” value was 1.22 and the “s Cholester” value turned out to be 2.68.

Take `CCc1nnc2n(c1=O)CCN2c1ccc(C)cc1` [Compound 2]: the “toxic effects for normal cells” value in data set [1] is given as “less toxic effects”. Moreover, in data set [2], the “antiproliferative activities” value is given as “significant antiproliferative activities”. In data set [3], the “log kw, ODS” value was 1.30 and the “s ODS” value came to 3.12. In data set [4], the “log kw, IAM” value was 1.00 and the “s IAM” value is recorded as 2.88. In addition, in data set [5], the “log kw, Cholester” value is on record as 0.57 and the “s Cholester” value is listed as 1.84.

In the case of `CCOC(=O)Cc1nnc2n(c1=O)CCN2c1ccc(Cl)c(Cl)c1` [Compound 17], in data set [3], the “log kw, ODS” value was 3.16 and the “s ODS” value came to 5.33. Further, in data set [4], the “log kw, IAM” value is recorded as 2.42 and the “s IAM” value came out at 5.01. In data set [5], the “log kw, Cholester” value is listed as 2.77 and the “s Cholester” value is reported as 4.61.

As to `COc1ccc(N2CCn3c2nnc(-c2ccccc2)c3=O)cc1` [Compound 34], in data set [3], the “log kw, ODS” value is 2.59 and the “s ODS” value is recorded as 4.62. In data set [4], the “log kw, IAM” value was 1.71 and the “s IAM” value worked out at 3.91. In addition, in data set [5], the “log kw, Cholester” value is 2.27 and the “s Cholester” value is 3.80.

As to `O=c1c(CCc2ccccc2)nnc2n1CCN2c1ccc(Cl)c(Cl)c1` [Compound 65], in data set [3], the “log kw, ODS” value is on record as 4.29 and the “s ODS” value amounted to 6.66. For the same compound, in data set [4], the “log kw, IAM” value is listed as 3.40 and the “s IAM” value is 6.55. Besides, in data set [5], the “log kw, Cholester” value is 4.12 and the “s Cholester” value stood at 6.20.

As to `CCOC(=O)Cc1nnc2n(c1=O)CCN2c1ccc(OC)cc1` [Compound 14], in data set [3], the “log kw, ODS” value is 1.37 and the “s ODS” value was determined as 3.15. Moreover, in data set [4], the “log kw, IAM” value is given as 0.91 and the “s IAM” value is given as 2.58. Besides, in data set [5], the “log kw, Cholester” value is listed as 0.65 and the “s Cholester” value was 1.92.
